pIC50: −log10 of the molar value.
What was measured:
[1] = tested on: LPS induced rat neutrophilia; experiment: LPS induced rat neutrophilia model, PDE IV inhibitor in combination with corticosteroids; format: in vivo; conditions: Compound No. 266 in combination with corticosteroid (not named), intratracheal, neutrophil count in BAL
Protocol: PDE-4 inhibitor and corticosteroids were instilled intratracheally under anesthesia at different doses, either alone or in combination. LPS challenge: One hour after drug instillation, (LPS 20 µg/200 µl of PBS) was instilled intratracheally. One group of vehicle treated rats were instilled with 200 µl of phosphate buffered saline (PBS) and served as negative control. Bronchoalveolar lavage (BAL): Two hours after LPS challenge, bronchoalveolar lavage was performed; the animals were sacrificed using thiopentone sodium (150 mg/kg/i.p.). Trachea was cannulated and BAL was performed using Hank's Buffer salt solution (HBSS) (5 ml x 10 times). The bronchoalveolar lavage fluid was centrifuged at 800 g for 5 min, at 4°C and the pellet was resuspended in 1 ml HBSS. Total leukocyte count was performed in the resuspended sample by using hemocytometer. A cytocentrifuge preparation was made using the resuspended bronchoalveolar lavage fluid on a glass slide, stained with Leishmann's stain and then differential leukocyte counts was performed for computation of neutrophil. Statistical significance of each parameter in different treatment groups was determined with respective to vehicle control group using one-way analysis of variance followed by Dunnett's 't' test for multiple comparison. A p level of ≤ 0.05 was considered to be statistically significant.

[2] = tested on: TNF-α release from human PBMCs; experiment: Cell based Assay for TNF-α release, PDE IV inhibitor in combination with p38 MAP Kinase inhibitors; conditions: inhibiting TNF-α release from human PBMCs, LPS stimulated, compound alone
Protocol: Blood was collected in heparin or EDTA vacutainers from healthy human volunteers and Peripheral Blood Mononuclear Cells isolated using Ficoll Hypaque gradient. The cells were resuspended in serum free RPMI 1640 medium at a concentration of 2 million cells/ml.). 1 ml of this cell suspension was co-incubated with 20 µl of compound, alone or in combination, for 10 min in a flat bottom 96 well microtiter plate. Compounds were dissolved in DMSO initially and diluted in medium for a final concentration of 0.2 % DMSO. LPS (1 µg/ml, final concentration) was then added at a volume of 10 µl per well. After 30 min, 20 µl of fetal calf serum (final concentration of 10 %) was added to each well. Cultures were incubated overnight at 37 °C in an atmosphere of 5 % CO2 and 95 % air. Supernatant were then removed and tested by ELISA for TNF-α release using a commercial kit (e.g. BD Biosciences). The level of TNF-α in treated wells was compared with the vehicle treated controls and inhibitory potency of compound was expressed as IC50 values calculated from the percent inhibition values by using Graph pad prism. Percent inhibition = 100-(Percent TNF-α drug treated)/(Percent TNF-α in vehicle treated) × 100 [formula]

TNF-α release = experiment: Cell based Assay for TNF-α release, PDE IV inhibitor in combination with corticosteroids; conditions: Compound No. 266 in combination with corticosteroid (not named), human PBMC
Protocol: Blood was collected in heparin or EDTA vacutainers from healthy human volunteers and Peripheral Blood Mononuclear Cells isolated using Ficoll Hypaque gradient. The cells were resuspended in serum free RPMI 1640 medium at a concentration of 2 million cells/ml). 1 ml of this cell suspension was co-incubated with 20 µl of compound, alone or in combination (PDE IV inhibitor and corticosteroid), for 10 min in a flat bottom 96 well microtiter plate The aforesaid compounds were dissolved in DMSO initially and diluted in medium for a final concentration of 0.2 % DMSO. LPS ([…], final concentration) was then added at a volume of 10 µl per well. After 30 min, 20 µl of fetal calf serum (final concentration of 10 %) was added to each well. Cultures were incubated overnight at 37 °C in an atmosphere of 5 % CO2 and 95 % air. Supernatant was then removed and tested by ELISA for TNF-α release using a commercial kit (e.g. BD Biosciences). The level of TNF-α in treated wells was compared with the vehicle treated controls and inhibitory potency of compound was expressed as IC50 values calculated by from percent inhibition values using Graph pad prism. […] Percent inhibition = 100-(Percent TNF-α drug treated)/(Percent TNF-α in vehicle treated) × 100 [formula]

[3] = tested on: LPS induced airway hyperreactivity; experiment: LPS induced airway hyperreactivity (PC100, Penh), PDE-IV inhibitor in combination with muscarinic receptor antagonist; format: in vivo, Wistar rats; conditions: intratracheal
Protocol: MRA (1ng/kg to 1mg/kg) and PDE-IV inhibitor (1ng/kg to 1mg/kg) were instilled intratracheally under anesthesia either alone or in combination.
Wistar rats weighing 200±20gm were used in the study. Rats had free access to food and water. On the day of experiment, animals were exposed to lipopolysaccharide (LPS, 100µg/ml) for 40 min. One group of vehicle treated rats was exposed to phosphate buffered saline (PBS) for 40 min. four hours after LPS/PBS exposure, animals were placed inside a whole body plethysmograph (Buxco Electronics, USA) and exposed to PBS or increasing concentration of acetylcholine (1, 6, 12, 24, 48 and 96 mg/ml) aerosol until Penh values (index of airway resistance) of rats attained 2 times the value (PC-100) seen with PBS alone. The respiratory parameters were recorded online using Biosystem XA software, (Buxco Electronics, USA). Penh, at any chosen dose of acetylcholine was expressed as percent of PBS response and using a nonlinear regression analysis PC100 (2 folds of PBS value) values were computed. Percent inhibition was computed using the following formula. % Inhibition = (PC100_LPS -PC100_TEST)/(PC100_LPS -PC100_PBS) × 100 [formula] Where, PC100LPS = PC100 in vehicle treated and LPS challenged group PC100TEST = PC100 in group treated with a given dose of test compound PC100PBS = PC100 in vehicle treated group challenged with PBS

[4] = Compound No. 266 in combination with Tiotropium (MRA), PC100

COc1cc(C2=NO[C@]3(CCOC3)C2)ccc1OC(F)F (single isomer, unassigned) [Compound No. 266, (5S or 5R)-3-[4-(Difluoromethoxy)-3-methoxyphenyl]-1,7-dioxa-2-azaspiro[4.4]non-2-ene]
Combination Index [1]: 0.58 | synergy with corticosteroids [1]: synergy | pIC50 [2]: 7.12 | Combination Index (TNF-α release): 0.21 | synergy with corticosteroids (TNF-α release): synergy | effect when administered alone ([3]; 10 µg/kg): ineffective | Combination Index [3, 4]: 0.26 | synergy with Tiotropium (MRA) [3, 4]: synergy

Cc1ccccc1-c1cc2cnc(NC3CCN(S(C)(=O)=O)CC3)nc2n([C@H]2CCOC2)c1=O [Compound No. 44a, 6-(2-Methylphenyl)-2-{[1-(methylsulfonyl)piperidin-4-yl]amino}-8-[(3S)-tetrahydrofuran-3-yl]pyrido[2,3-d]pyrimidin-7(8H)-one]
pIC50 ([2]; PBMC): 8.52

Cc1ccccc1-c1cc2cnc(NC3CCN(S(C)(=O)=O)CC3)nc2n([C@@H]2CCOC2)c1=O [Compound No. 46a, 6-(2-Methylphenyl)-2-{[1-(methylsulfonyl)piperidin-4-yl]amino}-8-[(3R)-tetrahydrofuran-3-yl]pyrido[2,3-d]pyrimidin-7(8H)-one]
pIC50 ([2]; PBMC): 8.70

Cc1ccccc1-c1cc2cnc(NC3CCN(C(=O)NC(C)C)CC3)nc2n([C@@H]2CCOC2)c1=O [Compound No. 47a, N-Isopropyl-4-({6-(2-methylphenyl)-7-oxo-8-[(3R)-tetrahydrofuran-3-yl]-7,8-dihydropyrido[2,3-d]pyrimidin-2-yl}amino)piperidine-1-carboxamide]
pIC50 ([2]; PBMC): 7.66

Cc1n(CCCOC(=O)[C@](O)(c2ccccc2)[C@@H]2CCC(F)(F)C2)cc[n+]1Cc1ccccc1.[Br-] [Compound No. 104aa, 3-Benzyl-1-[3-({(2R)-2-[(1R)-3,3-difluorocyclopentyl]-2-hydroxy-2-phenylacetyl}oxy)propyl]-2-methyl-1H-imidazol-3-ium bromide]
effect when administered alone ([3]; 10 ng/kg): not effective

O=c1ncn2nc(Sc3ccc(F)cc3F)ccc2c1-c1c(Cl)cccc1Cl [Vx-745, reference compound]
pIC50 ([2]; PBMC): 7.85

Reference: patent EP2111861A1, “Compositions of phosphodiesterase type IV inhibitors” (Ranbaxy Laboratories Limited, priority 2008, dated 2009)
